ChEMBL document CHEMBL5727270, “Macrocyclic immunomodulators” (2019)

Biological target: Programmed cell death 1 ligand 1 (Homo sapiens, UniProt Q9NZQ7)
Test: Enzyme-Linked Immunosorbent Assay - ELISA: 96 Well plates were coated with 1 μg/mL of human PD-L1 (obtained from R&D) in PBS overnight at 4° C. The wells were then blocked with 2% BSA in PBS (W/V) with 0.05% TWEEN-20 for 1 hour at 37° C. The plates were washed 3 times with PBS/0.05% TWEEN-20 and the compounds were serial diluted (1:5) in dilution medium and added to the ELISA plates. Human PD-1 and biotin 0.3 μg/mL (ACRO Biosystems) were added and incubated for 1 hour at 37° C. then washed 3 times with PBS/0.05% TWEEN-20. A second block was performed with 2% BSA in PBS (W/V)/0.05% TWEEN-20 for 10 min at 37° C. and was washed 3 times with PBS/0.05% TWEEN-20. Streptavidin-HRP was added for 1 hour at 37° C. then washed 3 times with PBS/0.05% TWEEN-20. TMB substrate was added and reacted for 20 min at 37° C. A stop solution (2 N aqueous H2SO4) was added. The absorbance was read at 450 nm using a micro-plate spectrophotometer.

Sequence of Programmed cell death 1 ligand 1 (Q9NZQ7 whole entry): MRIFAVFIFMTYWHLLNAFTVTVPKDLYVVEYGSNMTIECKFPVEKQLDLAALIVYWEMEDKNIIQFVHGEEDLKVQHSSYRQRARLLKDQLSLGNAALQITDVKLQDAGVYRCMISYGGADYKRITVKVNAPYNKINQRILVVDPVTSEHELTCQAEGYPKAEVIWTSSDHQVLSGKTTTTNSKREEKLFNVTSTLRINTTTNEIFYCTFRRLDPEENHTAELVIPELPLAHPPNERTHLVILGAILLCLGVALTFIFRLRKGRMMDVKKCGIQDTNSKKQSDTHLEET

SMILES | IC50 [nM]
Cc1c(COc2cc3c(cc2Cl)CN[C@H](C(=O)O)CCCCCCNC(=O)c2cncc(c2)CO3)cccc1-c1cccc(OCCCN2CCC(O)CC2)c1C | < 100
Cc1c(COc2cc3c(cc2Cl)CN[C@H](C(=O)O)CCCCNC(=O)c2cncc(c2)CO3)cccc1-c1cccc(OCCCN2CC[C@@H](O)C2)c1C | < 100
Cc1c(COc2cc3c(cc2Cl)CN[C@H](CO)CCCCNC(=O)c2cncc(c2)CO3)cccc1-c1cccc(OCCCN2CCC(O)CC2)c1C | < 100
Cc1c(COc2cc3c(cc2Cl)CN[C@@H](C(=O)O)CCCCNC(=O)c2cncc(c2)CO3)cccc1-c1ccccc1 | < 100
Cc1c(COc2cc3c(cc2Cl)CN[C@H](C(=O)O)CCCCNC(=O)c2cc(C#N)cc(c2)CO3)cccc1-c1cccc(OCCCN2CCC(O)CC2)c1C | < 100
Cc1c(COc2cc3c(cc2Cl)CN[C@H](C(=O)O)CCCCNC(=O)c2cc(C#N)cc(c2)CO3)cccc1-c1cccc(OCCCN2CC[C@@H](O)C2)c1C | < 100
